# Patent US20180043011A1, “PI3-Kinase Inhibition and LAG-3 Checkpoint blockade as a Combination Therapy for Cancer” (Wisconsin Alumni Research Foundation, priority 2016, published 2018)
# What was measured:
# [1] = test system: activated (CD137+) CD8+ T cells; test: In vitro stimulation of splenocytes, surface expression of LAG-3 and PD1 by flow cytometry; assay type: cell-based, mouse; conditions: 200nM BEZ235; WT (CD3/28 beads) or OT1 (SIINFEKL peptide) splenocytes; 24 h
# Protocol: FIG. 1A depicts WT (top) and OT1 (bottom) splenocytes stimulated with either CD3/28 beads or SIINFEKL peptide respectively, with/without PI3K inhibition and assayed for surface expression of LAG-3 (left graphs) or PD1 (right graphs) on activated (CD137+) CD8+ T cells at 24 h. FIG. 1B depicts a representative OT1 sample showing levels of LAG-3 and PD1 on CD8+ T cells upon in vitro SIINFEKL stimulation in the presence of a PI3K inhibitor. (* denotes a p-value <0.05, two way Mann-Whitney test) FIG. 1C depicts WT splenocytes stimulated with CD3/28 beads with/without PI3K inhibition and assayed for intracellular expression of cytokines in CD8+ T cells.
# Splenocytes from either OT-1 or wild type (WT) C57BL/6J mice were cultured in RPMI-1640, 10% FCS, 200U/mL Pen/Strep, 1% NaPyr, 1% HEPES, 50 μM β-MeOH and 2 μg/mL SIINFEKL peptide (OT1 cells) or CD3 and CD28 antibody coated latex beads (WT cells) with or without 200nM BEZ235 PI3-Kinase inhibitor (Selleckchem, Catalog No. S1009).
# (* denotes a p-value <0.05, two way Mann-Whitney test).
# [2] = test system: SSX2 mouse sarcoma cell line; test: Cancer cell growth in vitro (images after three days); assay type: cell-based; conditions: 200 nM BEZ235; three days after plating; 100,000 cells per flask
# Protocol: An SSX2 mouse sarcoma cell line (described in Rekoske et al., Cancer Immunol Res August 2015 3; 946) was split and 100,000 cells plated into each of two […] flasks. Cells were grown in RPMI-1640, 5% FCS, 200 U/mL Pen/Strep, 50 μM β-MeOH with or without 200 nM BEZ235 PI3-Kinase inhibitor. FIG. 2 left, mouse sarcoma cell line grown in normal media three days after plating; shown at […] and 10× and right, sarcoma cells from the same split plated with the same number of cells/cm^2 and grown in media containing the pan-PI3K inhibitor BEZ235.
compound,measurement,setting,value
Cn1c(=O)n(-c2ccc(C(C)(C)C#N)cc2)c2c3cc(-c4cnc5ccccc5c4)ccc3ncc21 [BEZ235],surface expression of LAG-3 on CD8+ T cells,[1],increased expression of LAG-3
same,surface expression of PD-1 on CD8+ T cells,[1],reduced expression of PD-1
same,cell growth,[2],inhibited cell growth
